Experimental data as given in ChEMBL document CHEMBL4024727, “Synthesis and antimycobacterial screening of new thiazolyl-oxazole derivatives” (Eur J Med Chem, 2017).
Converted amounts (≈) assume the structure as drawn.

Columns and labels:
Assay type in all cases: functional
Staphylococcus aureus [1] = experiment: Growth inhibition of Staphylococcus aureus NCIM 2602 at 1 ug/ml measured after 12 hrs relative to control; conditions: NCIM 2602, 12 h, read-out: GI
[2] = test system: Mycobacterium tuberculosis; experiment: Growth inhibition of Mycobacterium tuberculosis H37Ra ATCC 25177 at 3 ug/ml by XTT dye based two-fold dilution method relative to control; conditions: read-out: GI
Escherichia coli [3] = experiment: Antibacterial activity against Escherichia coli NCIM 2576 measured after 8 hrs; conditions: NCIM 2576, 8 h
[4] = test system: Mycobacterium tuberculosis; experiment: Growth inhibition of Mycobacterium tuberculosis H37Ra ATCC 25177 at 30 ug/ml by XTT dye based two-fold dilution method relative to control; conditions: read-out: GI
Escherichia coli [5] = experiment: Growth inhibition of Escherichia coli NCIM 2576 at 30 ug/ml measured after 8 hrs relative to control; conditions: NCIM 2576, 8 h, read-out: GI
Pseudomonas fluorescens [6] = experiment: Growth inhibition of Pseudomonas fluorescens NCIM 2059 at 1 ug/ml measured after 8 hrs relative to control; conditions: NCIM 2059, 8 h, read-out: GI
Bacillus subtilis [7] = experiment: Growth inhibition of Bacillus subtilis NCIM 2162 at 10 ug/ml measured after 12 hrs relative to control; conditions: NCIM 2162, 12 h, read-out: GI
[8] = test system: Mycobacterium tuberculosis; experiment: Growth inhibition of Mycobacterium bovis BCG ATCC 35743 at 10 ug/ml by nitrate reductase based two-fold dilution assay relative to control; conditions: BCG str. ATCC 35743, read-out: GI
Escherichia coli [9] = experiment: Growth inhibition of Escherichia coli NCIM 2576 at 10 ug/ml measured after 8 hrs relative to control; conditions: NCIM 2576, 8 h, read-out: GI
Bacillus subtilis [10] = experiment: Growth inhibition of Bacillus subtilis NCIM 2162 at 1 ug/ml measured after 12 hrs relative to control; conditions: NCIM 2162, 12 h, read-out: GI
Staphylococcus aureus [11] = experiment: Growth inhibition of Staphylococcus aureus NCIM 2602 at 10 ug/ml measured after 12 hrs relative to control; conditions: NCIM 2602, 12 h, read-out: GI
Staphylococcus aureus [12] = experiment: Antibacterial activity against Staphylococcus aureus NCIM 2602 measured after 12 hrs; conditions: NCIM 2602, 12 h
[13] = test system: Mycobacterium tuberculosis; experiment: Antitubercular activity against Mycobacterium bovis BCG ATCC 35743 dormant stage by nitrate reductase based two-fold dilution assay; conditions: BCG str. ATCC 35743
[14] = test system: Mycobacterium tuberculosis; experiment: Growth inhibition of Mycobacterium tuberculosis H37Ra ATCC 25177 at 10 ug/ml by XTT dye based two-fold dilution method relative to control; conditions: read-out: GI
Bacillus subtilis [15] = experiment: Growth inhibition of Bacillus subtilis NCIM 2162 at 30 ug/ml measured after 12 hrs relative to control; conditions: NCIM 2162, 12 h, read-out: GI
[16] = test system: Mycobacterium tuberculosis; experiment: Antitubercular activity against Mycobacterium tuberculosis H37Ra ATCC 25177 dormant stage by XTT dye based two-fold dilution method
Pseudomonas fluorescens [17] = experiment: Antibacterial activity against Pseudomonas fluorescens NCIM 2059 measured after 8 hrs; conditions: NCIM 2059, 8 h
[18] = test system: Mycobacterium tuberculosis; experiment: Growth inhibition of Mycobacterium bovis BCG ATCC 35743 at 1 ug/ml by nitrate reductase based two-fold dilution assay relative to control; conditions: BCG str. ATCC 35743, read-out: GI
Staphylococcus aureus [19] = experiment: Growth inhibition of Staphylococcus aureus NCIM 2602 at 30 ug/ml measured after 12 hrs relative to control; conditions: NCIM 2602, 12 h, read-out: GI
Pseudomonas fluorescens [20] = experiment: Growth inhibition of Pseudomonas fluorescens NCIM 2059 at 30 ug/ml measured after 8 hrs relative to control; conditions: NCIM 2059, 8 h, read-out: GI
Escherichia coli [21] = experiment: Growth inhibition of Escherichia coli NCIM 2576 at 1 ug/ml measured after 8 hrs relative to control; conditions: NCIM 2576, 8 h, read-out: GI
Bacillus subtilis [22] = experiment: Antibacterial activity against Bacillus subtilis NCIM 2162 measured after 12 hrs; conditions: NCIM 2162, 12 h
Pseudomonas fluorescens [23] = experiment: Growth inhibition of Pseudomonas fluorescens NCIM 2059 at 10 ug/ml measured after 8 hrs relative to control; conditions: NCIM 2059, 8 h, read-out: GI
[24] = test system: Mycobacterium tuberculosis; experiment: Growth inhibition of Mycobacterium bovis BCG ATCC 35743 at 30 ug/ml by nitrate reductase based two-fold dilution assay relative to control; conditions: BCG str. ATCC 35743, read-out: GI

Structure (SMILES)	inhibition of growth at 1 µg/mL (Staphylococcus aureus [1]) [%]	MIC (Escherichia coli [3]) [µM]	inhibition of growth at 30 µg/mL [4] [%]	inhibition of growth at 30 µg/mL (Escherichia coli [5]) [%]	inhibition of growth at 1 µg/mL (Pseudomonas fluorescens [6]) [%]	inhibition of growth at 10 µg/mL (Bacillus subtilis [7]) [%]	inhibition of growth at 10 µg/mL [8] [%]	inhibition of growth at 10 µg/mL (Escherichia coli [9]) [%]	inhibition of growth at 1 µg/mL (Bacillus subtilis [10]) [%]	inhibition of growth at 10 µg/mL (Staphylococcus aureus [11]) [%]	MIC (Staphylococcus aureus [12]) [µM]	IC50 [13] [µM]	MIC90 [13] [µM]	inhibition of growth at 30 µg/mL (Bacillus subtilis [15]) [%]	MIC (Pseudomonas fluorescens [17]) [µM]	inhibition of growth at 30 µg/mL (Staphylococcus aureus [19]) [%]	inhibition of growth at 30 µg/mL (Pseudomonas fluorescens [20]) [%]	inhibition of growth at 1 µg/mL (Escherichia coli [21]) [%]	MIC (Bacillus subtilis [22]) [µM]	inhibition of growth at 10 µg/mL (Pseudomonas fluorescens [23]) [%]	other results
Cc1ccc(-c2nc(-c3oc(-c4ccccc4)nc3C)cs2)cc1	5.6	> 100	17	33.8	2.57	15.9	34	11.1	3.92	14.9	> 100	> 100	> 100	33.4	> 100	31.5	30.8	7.19	> 100	18.6	inhibition of growth at 3 µg/mL [2]: 13%; inhibition of growth at 10 µg/mL [14]: 15%; IC50 [16]: > 100 µM; MIC90 [16]: > 100 µM; inhibition of growth at 1 µg/mL [18]: 25%; inhibition of growth at 30 µg/mL [24]: 34%
Cc1ccc(-c2nc(-c3oc(-c4ccc(F)cc4)nc3C)cs2)cc1	6.75	> 100	5	23.7	2.41	10.7	5	10.5	7.61	12.8	> 100	> 100	> 100	22	> 100	22.3	20.6	6.65	> 100	10.4	inhibition of growth at 10 µg/mL [14]: 3%; IC50 [16]: > 100 µM; MIC90 [16]: > 100 µM; inhibition of growth at 1 µg/mL [18]: 3%; inhibition of growth at 30 µg/mL [24]: 5%
Cc1nc(-c2ccccc2)oc1-c1csc(-c2cccc(Cl)c2)n1	20.5	> 100	27	68.2	23.5	57.3	26	51.8	24.8	55.6	> 100	> 100	> 100	69.8	> 100	69.4	65.8	24.9	> 100	56.2	inhibition of growth at 3 µg/mL [2]: 12%; inhibition of growth at 10 µg/mL [14]: 14%; IC50 [16]: > 100 µM; MIC90 [16]: > 100 µM; inhibition of growth at 1 µg/mL [18]: 26%; inhibition of growth at 30 µg/mL [24]: 40%
Cc1nc(-c2ccccc2)oc1-c1csc(-c2ccc(F)c(Cl)c2)n1	70.9	> 100	30	88	69.8	80.8	33	74.3	62	80	> 100	> 100	> 100	85.6	> 100	88.5	89.6	65	> 100	77.1	inhibition of growth at 3 µg/mL [2]: 19%; inhibition of growth at 10 µg/mL [14]: 21%; IC50 [16]: > 100 µM; MIC90 [16]: > 100 µM; inhibition of growth at 1 µg/mL [18]: 16%; inhibition of growth at 30 µg/mL [24]: 34%
Cc1nc(-c2ccccc2)oc1-c1csc(-c2ccc(Cl)cc2)n1	12.8	> 100	46	48.9	10.5	29.2	41	25.3	14.9	22.3	> 100	> 100	> 100	45.7	> 100	48.9	44.9	11.1	> 100	23.7	inhibition of growth at 3 µg/mL [2]: 38%; inhibition of growth at 10 µg/mL [14]: 45%; IC50 [16]: > 100 µM; MIC90 [16]: > 100 µM; inhibition of growth at 1 µg/mL [18]: 30%; inhibition of growth at 30 µg/mL [24]: 43%
Cc1nc(-c2ccc(F)cc2)oc1-c1csc(-c2ccc(F)cc2)n1	43	> 100	6	62.5	40.6	55.3	6	59	40.5	51.4	> 100	> 100	> 100	63.8	> 100	67	63.4	43.8	> 100	55.3	inhibition of growth at 10 µg/mL [14]: 5%; IC50 [16]: > 100 µM; MIC90 [16]: > 100 µM; inhibition of growth at 1 µg/mL [18]: 3%; inhibition of growth at 30 µg/mL [24]: 20%
Cc1nc(-c2ccccc2)oc1-c1csc(-c2ccc(F)cc2)n1	34.6	> 100	13	58.5	31.8	49.4	16	47.2	37.7	41.7	> 100	> 100	> 100	60.6	> 100	60.5	61	38.4	> 100	45.1	inhibition of growth at 3 µg/mL [2]: 8%; inhibition of growth at 10 µg/mL [14]: 13%; IC50 [16]: > 100 µM; MIC90 [16]: > 100 µM; inhibition of growth at 1 µg/mL [18]: 11%; inhibition of growth at 30 µg/mL [24]: 27%
Cc1nc(-c2ccccc2)oc1-c1csc(-c2ccc(Br)cc2)n1	67.8	> 100	33	85.6	64.5	74.3	36	79.1	65	72.2	> 100	> 100	> 100	88	> 100	85.2	85.2	67.7	> 100	74.2	inhibition of growth at 3 µg/mL [2]: 11%; inhibition of growth at 10 µg/mL [14]: 17%; IC50 [16]: > 100 µM; MIC90 [16]: > 100 µM; inhibition of growth at 1 µg/mL [18]: 31%; inhibition of growth at 30 µg/mL [24]: 39%
CC1(C)S[C@@H]2[C@H](NC(=O)[C@H](N)c3ccccc3)C(=O)N2[C@H]1C(=O)O [AMPICILLIN]	98.2	4.18 (≈ 1.46 µg/mL)		100	96.4	94.5		97.9	90	98.9	2.86 (≈ 0.999 µg/mL)			96.8	12.5 (≈ 4.36 µg/mL)	99.4	98.8	97.5	29.2 (≈ 10.2 µg/mL)	97.7	
